# Source: patent US12421249B2, “Inhibitors of APOL1 and methods of using same” (Vertex Pharmaceuticals Incorporated, priority 2020, dated 2025)
# Target: T1, APOL1 G1 (Homo sapiens, UniProt O14791, I384M/S342G)
# T1 sequence (O14791 28-398 S342G/I384M): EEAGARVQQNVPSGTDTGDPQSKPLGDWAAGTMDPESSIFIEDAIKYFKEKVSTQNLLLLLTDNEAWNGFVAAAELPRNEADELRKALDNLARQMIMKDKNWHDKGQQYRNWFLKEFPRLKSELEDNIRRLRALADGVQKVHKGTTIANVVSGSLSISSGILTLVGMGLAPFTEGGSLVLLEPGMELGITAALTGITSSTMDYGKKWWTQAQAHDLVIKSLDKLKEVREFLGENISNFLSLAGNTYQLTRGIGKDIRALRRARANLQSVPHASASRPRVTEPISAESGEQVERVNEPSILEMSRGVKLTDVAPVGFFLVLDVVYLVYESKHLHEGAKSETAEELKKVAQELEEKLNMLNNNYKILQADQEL
# Test: Trypanosoma brucei brucei Lysis Assay Using APOL1 Recombinant Protein (AlamarBlue viability readout)
# Assay type: cell-based
# Details: Trypanosome Assay; IP50 = IC50 for cell proliferation; read-out: Trypanosome Assay IP50
# Excerpt: Trypanosoma brucei brucei is a blood stream parasite to which human, gorillas, and baboons are immune due to the presence of the APOL1 protein in their HDL particles. The protein is uptaken by the parasite via the TbHpHb receptor located in its flagellar pocket and is bonded by the Hpr protein contained in the HDL particles which triggers the receptor endocytosis by the parasite.
# Following endocytosis, the formed vesicle containing the HDL particle matures from early to late endosome, and subsequently to lysosome. The concomitant pH change in the lumen of the vesicle triggers the insertion of the APOL1 protein into the membrane of the late endosome/lysosome and hereby triggers lysosomal membrane permeabilization and as a further downstream event, trypanosome lysis. Trypanosoma brucei brucei is sensitive to lysis by all three APOL1 variants (G0, G1, and G2).
# The Trypanosoma brucei brucei lysis assay is a lysis assay of the parasite using recombinant APOL1 protein variant followed by a fluorescent detection method of viability by the addition of AlamarBlue reagent to the assay well, a general metabolic redox indicator (AlamarBlue assay).
# Briefly, the AlamarBlue active compound, resazurin, a blue, water soluble, non-toxic and cell permeable molecule, which can be followed by absorbance, is reduced by various metabolic pathways into resorufin, a red compound which can be followed by either absorbance or fluorescence. The assay allows the calculation of the percent viability (percent of living Trypanosomes remaining in each well) at the end of a lysis relative to the untreated condition by interpolation of fluorescent values (FLU) on a standard curve with a known amount of seeded trypanosome/well.
# Trypanosoma brucei brucei (ATCC, Cat. No. PRA-382)
# • Lister 427 VSG 221 bloodstream form.
# Equipment • E1-Clip Tip pipette 12 channel adjustable 2-125 μL, Cat. No. 4672070BT • ThermoFisher MultiDrop 384, Cat. No. 5840300 • Multidrop • Agilent Bravo, Cat. No. G5409A • Bravo • SpectraMax M5 Assay Ready Plates (ARPs) • ARPs comes in two formats: • […] final top concentration with a 2.5 fold dilution down. • […] final top concentration with a 3 fold dilution down. • Both have a 10 point Dose response. • 0.1% DMSO final in the Black Assay Plate. • Compounds are diluted 1000 fold in the Black Assay Plate. • Each plate is designed for 14 compounds in duplicate. • In the final Black Assay Plate: • Column 1: Media only (no APOL1) (100% viable) • Column 2-23: 0.05 μg/mL APOL1 (˜EC90) (10% viable with APOL1) • Column 24: 0.1 μg/mL APOL1 (EC100) (Approx. […] Step 2, Day 4 • Centrifuge at 800×g for 5 minutes at room temperature. • Resuspend in 1 mL media. • Make a 1:25 fold dilution (10 μL/240 μL media). • Count on a hemocytometer (after adding parasites). • Let sit for 1-2 minutes for the parasites to settle. • Count should be approximately 100 viable motile parasites/16 grid or approximately 25×10^6 parasites/flask. • Passage the parasites by adding 1×10^6 parasites/T75 flask in 20 mL media. • Passage the parasites by adding 2.33×10^6 parasites/T175 flask in 46.6 mL media. • For every T75 flask should make enough for approximately 1.5×384 well assay plates. • For every T175 flask should make enough for approximately 3.8×384 well assay plates. Step 3, Day 6 • Centrifuge at 800×g for 5 minutes. • Resuspend in 3 mL assay media (No phenol red, no FBS) per 75 starting flask. • Resuspend in 7 mL assay media (No phenol red, no FBS) per 175 flask • Make a 1:25 fold dilution. • Count by hemocytometer. • Every T75 flask set up should have approximately 75×10^6 parasites/flask (verify doubling time=8.7 hours±1 hour). • Every T175 flask set up should have approximately 175×10^6 parasites/flask (verify doubling time=8.7 hours±1 hour). • Require 46×10^6 parasites per 384 well plate (at 120,000 parasites per well). […]
row,SMILES,IC50 [µM]
1,C[C@H]1C[C@@]2(C[C@@H](c3cnccn3)N1)OCCc1cc(Cl)sc12 (racemic) [Compound 101],0.05 to 0.5
2,CCOc1cc([C@@H]2C[C@]3(C[C@H](C)N2)OCCc2cc(Cl)sc23)ccc1O (racemic) [Compound 102],< 0.05
3,C[C@H]1C[C@@]2(C[C@@H](c3cnn(CC(C)(CO)CO)c3)N1)OCCc1cc(Cl)sc12 (racemic) [Compound 103],0.05 to 0.5
4,Cc1nc([C@@H]2C[C@]3(C[C@H](C)N2)OCCc2cc(Cl)sc23)co1 (racemic) [Compound 104],0.05 to 0.5
5,COc1ccccc1-c1ncc([C@@H]2C[C@]3(C[C@H](C)N2)OCCc2cc(Cl)sc23)cn1 (racemic) [Compound 105],< 0.05
6,COCc1cc([C@@H]2C[C@]3(C[C@H](C)N2)OCCc2cc(Cl)sc23)no1 (racemic) [Compound 106],< 0.05
7,CCOc1ccc([C@@H]2C[C@]3(C[C@H](C)N2)OCCc2cc(Cl)sc23)cc1O (racemic) [Compound 107],< 0.05

# Same assay, conditions: Trypanosome Assay; read-out: Trypanosome Assay Max Activity (%)
row,SMILES,Emax [%]
1,C[C@H]1C[C@@]2(C[C@@H](c3cnccn3)N1)OCCc1cc(Cl)sc12 (racemic) [Compound 101],114
2,CCOc1cc([C@@H]2C[C@]3(C[C@H](C)N2)OCCc2cc(Cl)sc23)ccc1O (racemic) [Compound 102],112
3,C[C@H]1C[C@@]2(C[C@@H](c3cnn(CC(C)(CO)CO)c3)N1)OCCc1cc(Cl)sc12 (racemic) [Compound 103],118
4,Cc1nc([C@@H]2C[C@]3(C[C@H](C)N2)OCCc2cc(Cl)sc23)co1 (racemic) [Compound 104],100
5,COc1ccccc1-c1ncc([C@@H]2C[C@]3(C[C@H](C)N2)OCCc2cc(Cl)sc23)cn1 (racemic) [Compound 105],72
6,COCc1cc([C@@H]2C[C@]3(C[C@H](C)N2)OCCc2cc(Cl)sc23)no1 (racemic) [Compound 106],107
7,CCOc1ccc([C@@H]2C[C@]3(C[C@H](C)N2)OCCc2cc(Cl)sc23)cc1O (racemic) [Compound 107],92.5

# Target: T2, APOL1 (Homo sapiens, UniProt O14791)
# T2 sequence (O14791 1-398 S342G/I384M): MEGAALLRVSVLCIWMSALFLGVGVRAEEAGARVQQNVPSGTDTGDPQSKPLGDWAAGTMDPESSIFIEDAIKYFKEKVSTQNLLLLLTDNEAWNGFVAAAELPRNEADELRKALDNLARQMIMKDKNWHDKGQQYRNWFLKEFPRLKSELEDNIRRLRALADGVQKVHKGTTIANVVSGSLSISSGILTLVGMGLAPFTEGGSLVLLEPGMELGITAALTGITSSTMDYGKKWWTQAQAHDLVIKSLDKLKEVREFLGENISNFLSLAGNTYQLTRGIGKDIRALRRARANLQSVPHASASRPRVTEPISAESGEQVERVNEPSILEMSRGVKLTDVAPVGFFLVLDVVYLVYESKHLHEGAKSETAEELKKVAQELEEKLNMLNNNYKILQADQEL
# Test: Multi-Tox Assay (MultiTox-Fluor Multiplex Cytotoxicity Assay in tet-inducible APOL1 T-REx-HEK293 cells; Table 46 does not say which APOL1 variant G0/G1/G2)
# Assay type: cell-based
# Details: APOL1 variant not given
row,SMILES,Multi-Tox Assay Max Activity (%)
1,C[C@H]1C[C@@]2(C[C@@H](c3cnccn3)N1)OCCc1cc(Cl)sc12 (racemic) [Compound 101],100.0
2,CCOc1cc([C@@H]2C[C@]3(C[C@H](C)N2)OCCc2cc(Cl)sc23)ccc1O (racemic) [Compound 102],99.8
3,Cc1nc([C@@H]2C[C@]3(C[C@H](C)N2)OCCc2cc(Cl)sc23)co1 (racemic) [Compound 104],99.3
4,COc1ccccc1-c1ncc([C@@H]2C[C@]3(C[C@H](C)N2)OCCc2cc(Cl)sc23)cn1 (racemic) [Compound 105],99.3
5,CCOc1ccc([C@@H]2C[C@]3(C[C@H](C)N2)OCCc2cc(Cl)sc23)cc1O (racemic) [Compound 107],99.7

# Same assay, conditions: IP50 = IC50 for cell proliferation, APOL1 variant not given
row,SMILES,IC50 [µM]
1,C[C@H]1C[C@@]2(C[C@@H](c3cnccn3)N1)OCCc1cc(Cl)sc12 (racemic) [Compound 101],< 0.05
2,CCOc1cc([C@@H]2C[C@]3(C[C@H](C)N2)OCCc2cc(Cl)sc23)ccc1O (racemic) [Compound 102],< 0.05
3,C[C@H]1C[C@@]2(C[C@@H](c3cnn(CC(C)(CO)CO)c3)N1)OCCc1cc(Cl)sc12 (racemic) [Compound 103],< 0.05
4,Cc1nc([C@@H]2C[C@]3(C[C@H](C)N2)OCCc2cc(Cl)sc23)co1 (racemic) [Compound 104],< 0.05
5,COc1ccccc1-c1ncc([C@@H]2C[C@]3(C[C@H](C)N2)OCCc2cc(Cl)sc23)cn1 (racemic) [Compound 105],< 0.05
6,COCc1cc([C@@H]2C[C@]3(C[C@H](C)N2)OCCc2cc(Cl)sc23)no1 (racemic) [Compound 106],< 0.05
7,CCOc1ccc([C@@H]2C[C@]3(C[C@H](C)N2)OCCc2cc(Cl)sc23)cc1O (racemic) [Compound 107],< 0.05
